Reference: patent US11352361B2, “Compounds useful as RET inhibitors” (Cancer Research Technology Limited, priority 2017, dated 2022)

Legend:
[1] = target: BaF3 cells expressing KDR (Homo sapiens, UniProt P35968, cells depend on it, form not given); settings: read-out: KDR Cell IC50; 48 hours incubation
KDR = KDR (Homo sapiens (Human), UniProt P35968); assay: KDR enzyme assay (CisBio HTRF kinEASE); type: biochemical; settings: ATP at Km, 15 mins pre-incubation
RET = RET (Homo sapiens (Human), UniProt P07949); assay: RET enzyme assay (CisBio HTRF kinEASE); type: biochemical; settings: RET/KDR enzyme and cell assays
Sequence of RET (P07949 658-1114): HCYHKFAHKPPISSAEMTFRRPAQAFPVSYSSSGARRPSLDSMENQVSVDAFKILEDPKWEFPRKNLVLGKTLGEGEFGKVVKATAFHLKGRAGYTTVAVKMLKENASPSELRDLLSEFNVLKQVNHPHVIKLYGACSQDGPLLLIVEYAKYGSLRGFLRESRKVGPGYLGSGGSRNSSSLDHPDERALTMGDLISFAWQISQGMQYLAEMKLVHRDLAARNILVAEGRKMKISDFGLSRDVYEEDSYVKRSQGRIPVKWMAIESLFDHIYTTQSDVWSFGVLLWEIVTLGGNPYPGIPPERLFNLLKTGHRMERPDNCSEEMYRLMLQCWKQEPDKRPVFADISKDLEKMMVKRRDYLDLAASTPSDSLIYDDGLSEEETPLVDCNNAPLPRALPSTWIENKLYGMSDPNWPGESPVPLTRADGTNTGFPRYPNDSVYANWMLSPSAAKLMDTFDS

[2] = target: BaF3 cells expressing KIF5B-RET (Homo sapiens, UniProt P07949); assay: BaF3 cell assay, KIF5B-RET (CellTiter-Glo viability); type: cell-based; settings: 48 hours incubation
Sequence of BaF3 cells expressing KIF5B-RET (P07949 29-1114 limits assumed, change not shown): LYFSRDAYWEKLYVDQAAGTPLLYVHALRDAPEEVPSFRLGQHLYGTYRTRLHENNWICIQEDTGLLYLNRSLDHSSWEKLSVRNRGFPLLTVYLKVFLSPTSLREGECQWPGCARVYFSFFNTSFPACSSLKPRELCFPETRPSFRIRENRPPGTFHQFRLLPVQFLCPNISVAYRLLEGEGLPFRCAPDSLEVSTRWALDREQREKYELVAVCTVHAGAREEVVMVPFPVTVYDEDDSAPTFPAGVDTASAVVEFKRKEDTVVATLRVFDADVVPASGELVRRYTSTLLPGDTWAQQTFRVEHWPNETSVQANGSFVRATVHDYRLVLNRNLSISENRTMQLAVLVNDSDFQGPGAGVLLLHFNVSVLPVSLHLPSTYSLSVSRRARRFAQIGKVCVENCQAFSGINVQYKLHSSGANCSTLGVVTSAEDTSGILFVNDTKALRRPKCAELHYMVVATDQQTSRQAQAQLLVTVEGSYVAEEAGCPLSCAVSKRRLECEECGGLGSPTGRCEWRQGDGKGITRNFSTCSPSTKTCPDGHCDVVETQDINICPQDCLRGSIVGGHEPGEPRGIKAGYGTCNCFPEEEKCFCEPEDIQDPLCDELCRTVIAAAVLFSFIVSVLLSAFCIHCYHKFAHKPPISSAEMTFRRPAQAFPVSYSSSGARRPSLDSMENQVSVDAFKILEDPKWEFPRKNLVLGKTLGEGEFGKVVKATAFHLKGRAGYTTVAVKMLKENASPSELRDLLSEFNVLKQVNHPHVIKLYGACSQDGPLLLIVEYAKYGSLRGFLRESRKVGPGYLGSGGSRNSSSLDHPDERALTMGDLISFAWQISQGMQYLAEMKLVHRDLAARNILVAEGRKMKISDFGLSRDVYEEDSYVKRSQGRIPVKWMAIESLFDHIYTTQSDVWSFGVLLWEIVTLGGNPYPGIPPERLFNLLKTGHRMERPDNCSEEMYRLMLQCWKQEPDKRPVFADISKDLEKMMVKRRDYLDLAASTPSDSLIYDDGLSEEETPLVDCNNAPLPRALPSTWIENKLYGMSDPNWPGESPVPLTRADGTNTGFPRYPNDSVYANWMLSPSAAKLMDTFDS

Sequence of BaF3 cells expressing KDR (P35968 20-1356 limits assumed, stated change not applied): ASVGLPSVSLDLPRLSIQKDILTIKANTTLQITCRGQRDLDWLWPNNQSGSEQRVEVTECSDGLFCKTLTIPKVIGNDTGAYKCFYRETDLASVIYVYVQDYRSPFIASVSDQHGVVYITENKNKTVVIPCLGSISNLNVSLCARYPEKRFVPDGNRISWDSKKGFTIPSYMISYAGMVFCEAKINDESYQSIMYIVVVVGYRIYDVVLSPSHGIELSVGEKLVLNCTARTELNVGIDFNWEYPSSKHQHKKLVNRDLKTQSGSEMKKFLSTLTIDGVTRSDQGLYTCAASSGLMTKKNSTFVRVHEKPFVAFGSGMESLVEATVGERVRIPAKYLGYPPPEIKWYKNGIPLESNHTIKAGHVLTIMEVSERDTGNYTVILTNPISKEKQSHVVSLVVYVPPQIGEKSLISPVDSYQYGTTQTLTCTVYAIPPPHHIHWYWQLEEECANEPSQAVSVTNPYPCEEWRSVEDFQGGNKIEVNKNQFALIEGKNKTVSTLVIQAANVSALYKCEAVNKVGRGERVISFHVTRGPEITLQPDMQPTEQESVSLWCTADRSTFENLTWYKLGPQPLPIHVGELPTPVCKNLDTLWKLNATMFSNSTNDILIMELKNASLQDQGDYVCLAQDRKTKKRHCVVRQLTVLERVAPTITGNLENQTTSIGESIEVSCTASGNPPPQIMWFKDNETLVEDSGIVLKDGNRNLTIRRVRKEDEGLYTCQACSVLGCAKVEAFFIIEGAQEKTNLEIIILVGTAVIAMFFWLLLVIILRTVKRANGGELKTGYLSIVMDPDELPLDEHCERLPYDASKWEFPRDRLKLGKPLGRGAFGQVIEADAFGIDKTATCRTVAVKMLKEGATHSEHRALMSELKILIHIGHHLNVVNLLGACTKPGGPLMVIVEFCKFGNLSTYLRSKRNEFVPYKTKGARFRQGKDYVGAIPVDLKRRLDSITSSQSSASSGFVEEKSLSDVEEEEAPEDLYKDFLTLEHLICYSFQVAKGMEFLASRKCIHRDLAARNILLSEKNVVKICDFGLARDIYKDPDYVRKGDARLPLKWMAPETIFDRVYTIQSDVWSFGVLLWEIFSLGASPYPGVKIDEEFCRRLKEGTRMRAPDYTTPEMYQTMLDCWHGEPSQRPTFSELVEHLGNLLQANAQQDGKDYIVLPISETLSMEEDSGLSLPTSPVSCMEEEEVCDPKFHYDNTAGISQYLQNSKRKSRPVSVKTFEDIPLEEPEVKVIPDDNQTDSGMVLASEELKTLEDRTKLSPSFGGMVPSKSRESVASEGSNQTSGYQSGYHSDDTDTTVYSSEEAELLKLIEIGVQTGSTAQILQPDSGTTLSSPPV
Sequence of KDR (P35968 790-1356): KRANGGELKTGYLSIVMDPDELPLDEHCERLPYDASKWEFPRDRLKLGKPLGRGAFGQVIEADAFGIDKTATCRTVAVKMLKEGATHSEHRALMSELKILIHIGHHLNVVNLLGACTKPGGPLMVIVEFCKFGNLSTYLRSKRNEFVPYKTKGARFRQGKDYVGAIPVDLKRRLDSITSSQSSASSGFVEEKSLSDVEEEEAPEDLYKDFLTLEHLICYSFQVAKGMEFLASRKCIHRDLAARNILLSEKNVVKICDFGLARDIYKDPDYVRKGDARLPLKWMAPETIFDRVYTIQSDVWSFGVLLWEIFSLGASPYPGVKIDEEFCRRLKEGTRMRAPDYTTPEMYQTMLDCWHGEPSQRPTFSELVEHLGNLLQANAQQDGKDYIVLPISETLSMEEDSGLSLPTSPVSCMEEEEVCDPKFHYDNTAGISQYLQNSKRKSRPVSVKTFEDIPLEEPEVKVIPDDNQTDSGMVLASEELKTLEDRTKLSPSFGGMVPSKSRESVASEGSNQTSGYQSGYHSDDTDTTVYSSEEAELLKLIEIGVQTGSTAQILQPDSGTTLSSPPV

| Compound | desired activity in the assays described in Example 51 (RET) | also measured |
| --- | --- | --- |
| CC(C)n1nc(-c2ccc3cc(C(=O)Nc4nccs4)[nH]c3c2)c2c(N)ncnc21 [Example 37, 6-(4-Amino-1-isopropyl-pyrazolo[3,4-d]pyrimidin-3-yl)-N-thiazol-2-yl-1H-indole-2-carboxamide] | – | IC50 [1]: 702 nM |
| CC(C)(C)n1nc(-c2ccc3cc(C(=O)NCC(F)(F)F)[nH]c3c2)c2c(N)ncnc21 [Example 11, 6-(4-Amino-1-tert-butyl-pyrazolo[3,4-d]pyrimidin-3-yl)-N-(2,2,2-trifluoroethyl)-1H-indole-2-carboxamide] | – | IC50 (KDR): 150000 nM; IC50 [1]: 4260 nM |
| Cc1csc(NC(=O)c2cc3ccc(-c4nn(C(C)(C)C)c5ncnc(N)c45)cc3[nH]2)n1 [Example 26, 6-(4-Amino-1-tert-butyl-pyrazolo[3,4-d]pyrimidin-3-yl)-N-(4-methylthiazol-2-yl)-1H-indole-2-carboxamide] | – | IC50 [2]: 912 nM |
| CNC(=O)c1cc2ccc(-c3nn(C4CC4)c4ncnc(N)c34)cc2[nH]1 [Example 50, 6-(4-Amino-1-cyclopropyl-pyrazolo[3,4-d]pyrimidin-3-yl)-N-methyl-1H-indole-2-carboxamide] | – | IC50 [2]: 222 nM |
| CNC(=O)c1cc2ccc(-c3nn(CCO)c4ncnc(N)c34)cc2[nH]1 [6-[4-amino-1-(2-hydroxyethyl)pyrazolo[3,4-d]pyrimidin-3-yl]-N-methyl-1H-indole-2-carboxamide] | did not exhibit the desired activity | – |
| CC(C)(C)n1nc(-c2ccc3cc(C(=O)Nc4nccs4)[nH]c3c2)c2c(N)ncnc21 [Example 1, 6-(4-Amino-1-tert-butyl-pyrazolo[3,4-d]pyrimidin-3-yl)-N-thiazol-2-yl-1H-indole-2-carboxamide] | – | IC50 [2]: 83.6 nM |

Further lines, with some results ahead:

| desired activity in the assays described in Example 51 (RET) | Compound | also measured |
| --- | --- | --- |
| did not exhibit the desired activity | CC(C)(C)n1nc(-c2ccc3cc(C(=O)Nc4nnc(C(F)(F)F)s4)[nH]c3c2)c2c(N)ncnc21 [6-(4-amino-1-tert-butyl-pyrazolo[3,4-d]pyrimidin-3-yl)-N-[5-(trifluoromethyl)-1,3,4-thiadiazol-2-yl]-1H-indole-2-carboxamide] | – |
| did not exhibit the desired activity | CNC(=O)c1cc2ccc(-c3nn(CC(=O)N(C)C)c4ncnc(N)c34)cc2[nH]1 [6-[4-amino-1-[2-(dimethylamino)-2-oxo-ethyl]pyrazolo[3,4-d]pyrimidin-3-yl]-N-methyl-1H-indole-2-carboxamide] | – |
| did not exhibit the desired activity | CNC(=O)c1cc2ccc(-c3nn(CCC(=O)N(C)C)c4ncnc(N)c34)cc2[nH]1 [6-[4-amino-1-[3-(dimethylamino)-3-oxo-propyl]pyrazolo[3,4-d]pyrimidin-3-yl]-N-methyl-1H-indole-2-carboxamide] | – |
| did not exhibit the desired activity | CNC(=O)c1cc2ccc(-c3n[nH]c4ncnc(N)c34)cc2[nH]1 [6-(4-amino-1H-pyrazolo[3,4-d]pyrimidin-3-yl)-N-methyl-1H-indole-2-carboxamide] | – |
| did not exhibit the desired activity | CC(C)(C)n1nc(-c2ccc3cc(C(=O)O)[nH]c3c2)c2c(N)ncnc21 [6-(4-amino-1-tert-butyl-pyrazolo[3,4-d]pyrimidin-3-yl)-1H-indole-2-carboxylic acid] | – |
| did not exhibit the desired activity | CCNC(=O)c1cc2ccc(-c3nn([C@H]4CC[C@@H](O)C4)c4ncnc(NC)c34)cc2[nH]1 [N-ethyl-6-[1-[(1 S,3R)-3-hydroxycyclopentyl]-4-(methylamino)pyrazolo[3,4-d]pyrimidin-3-yl]-1H-indole-2-carboxamide] | – |
